# Data from ChEMBL document CHEMBL4130457, “Discovery of AZD-2098 and AZD-1678, Two Potent and Bioavailable CCR4 Receptor Antagonists” (ACS Med Chem Lett, 2017).
# Calls of active or inactive are those of the source. The rule behind the calls is not given here.
# Columns and labels:
# [1] = Volume of distribution at steady state in rat; assay type: ADME, organism-based; details: in vivo, read-out: Vdss
# [2] = Protein binding in human plasma; assay type: ADME, cell-free; details: read-out: PPB (converted)
# [3] = biological target: T1, C-X-C chemokine receptor type 1 (Homo sapiens) (UniProt P25024); experiment: Antagonist activity at CXCR1 (unknown origin) at 10 uM; assay type: functional
# T1 sequence (whole entry): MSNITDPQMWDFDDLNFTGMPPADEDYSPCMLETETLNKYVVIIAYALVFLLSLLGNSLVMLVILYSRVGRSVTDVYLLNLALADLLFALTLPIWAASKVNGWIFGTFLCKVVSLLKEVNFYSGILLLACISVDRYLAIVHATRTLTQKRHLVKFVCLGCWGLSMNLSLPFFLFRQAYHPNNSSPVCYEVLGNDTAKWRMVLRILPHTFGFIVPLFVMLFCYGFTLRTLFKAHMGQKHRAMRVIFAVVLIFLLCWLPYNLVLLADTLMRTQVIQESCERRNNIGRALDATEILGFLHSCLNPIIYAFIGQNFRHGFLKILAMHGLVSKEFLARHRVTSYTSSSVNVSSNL
# [4] = biological target: C-C chemokine receptor type 8 (Homo sapiens) (UniProt P51685); experiment: Antagonist activity at CCR8 (unknown origin) at 10 uM; assay type: functional
# Chain of C-C chemokine receptor type 8 (Homo sapiens) (P51685 whole entry): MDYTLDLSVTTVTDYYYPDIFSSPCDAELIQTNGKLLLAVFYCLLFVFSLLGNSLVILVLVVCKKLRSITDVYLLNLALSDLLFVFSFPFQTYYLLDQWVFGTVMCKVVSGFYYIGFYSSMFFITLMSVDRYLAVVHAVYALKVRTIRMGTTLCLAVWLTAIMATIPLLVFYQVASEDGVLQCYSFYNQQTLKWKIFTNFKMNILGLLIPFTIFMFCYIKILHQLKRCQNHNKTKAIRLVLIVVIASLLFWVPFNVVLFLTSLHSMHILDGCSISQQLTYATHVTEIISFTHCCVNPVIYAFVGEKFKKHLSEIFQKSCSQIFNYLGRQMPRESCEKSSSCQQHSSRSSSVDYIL
# [5] = biological target: C-C chemokine receptor type 2 (Homo sapiens) (UniProt P41597); experiment: Antagonist activity at CCR2b (unknown origin) at 10 uM
# Chain of C-C chemokine receptor type 2 (Homo sapiens) (P41597 whole entry, looked up): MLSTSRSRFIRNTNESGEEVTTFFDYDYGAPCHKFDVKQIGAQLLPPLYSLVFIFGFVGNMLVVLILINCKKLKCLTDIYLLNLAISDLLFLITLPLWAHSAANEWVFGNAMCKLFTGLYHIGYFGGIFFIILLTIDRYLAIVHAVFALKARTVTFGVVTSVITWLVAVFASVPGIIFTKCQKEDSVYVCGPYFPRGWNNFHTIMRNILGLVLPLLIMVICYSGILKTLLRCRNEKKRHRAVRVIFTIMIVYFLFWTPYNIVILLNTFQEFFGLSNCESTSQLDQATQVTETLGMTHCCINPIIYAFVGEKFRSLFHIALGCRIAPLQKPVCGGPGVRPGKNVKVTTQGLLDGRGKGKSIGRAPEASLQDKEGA
# [6] = biological target: T2, C-X-C chemokine receptor type 2 (Homo sapiens) (UniProt P25025); experiment: Antagonist activity at CXCR2 (unknown origin) at 10 uM; assay type: functional
# T2 sequence (whole entry): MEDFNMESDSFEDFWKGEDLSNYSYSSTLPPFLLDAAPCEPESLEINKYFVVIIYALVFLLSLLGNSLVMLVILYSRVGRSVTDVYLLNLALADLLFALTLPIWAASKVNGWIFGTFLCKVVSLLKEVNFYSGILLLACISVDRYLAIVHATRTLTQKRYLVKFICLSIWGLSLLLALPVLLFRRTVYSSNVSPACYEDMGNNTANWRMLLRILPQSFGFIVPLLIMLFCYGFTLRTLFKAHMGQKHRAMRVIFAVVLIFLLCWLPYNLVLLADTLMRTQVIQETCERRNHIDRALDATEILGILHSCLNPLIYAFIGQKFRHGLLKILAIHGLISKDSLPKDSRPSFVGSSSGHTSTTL
# [7] = Antagonist activity at rat CCR4
# [8] = Protein binding in rat plasma; assay type: ADME, cell-free; details: read-out: PPB (converted)
# [9] = biological target: T3, C-C chemokine receptor type 4 (Mus musculus, UniProt P51680); experiment: Antagonist activity at mouse CCR4; assay type: functional
# T3 sequence (P51680 whole entry): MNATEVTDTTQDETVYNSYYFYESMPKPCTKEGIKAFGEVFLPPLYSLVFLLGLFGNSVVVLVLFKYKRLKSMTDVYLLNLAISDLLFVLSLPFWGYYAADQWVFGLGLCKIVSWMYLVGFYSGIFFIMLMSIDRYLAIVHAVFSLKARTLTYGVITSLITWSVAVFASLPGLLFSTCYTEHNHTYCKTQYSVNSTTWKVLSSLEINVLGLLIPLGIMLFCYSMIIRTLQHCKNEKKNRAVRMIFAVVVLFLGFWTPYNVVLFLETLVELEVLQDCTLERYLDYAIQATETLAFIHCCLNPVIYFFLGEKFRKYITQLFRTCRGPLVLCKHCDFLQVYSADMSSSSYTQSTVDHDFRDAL
# [10] = Protein binding in mouse plasma; assay type: ADME, cell-free; details: read-out: PPB (converted)
# [11] = biological target: T4, C-C chemokine receptor type 4 (Homo sapiens, UniProt P51679); experiment: Antagonist activity at recombinant human CCR4 expressed in CHO-K1 cells assessed as inhibition of CCL22 induced Ca2+ mobilization after 2 hrs by FMAT based fluorescence assay; assay type: functional, cell-based
# T4 sequence (P51679 whole entry): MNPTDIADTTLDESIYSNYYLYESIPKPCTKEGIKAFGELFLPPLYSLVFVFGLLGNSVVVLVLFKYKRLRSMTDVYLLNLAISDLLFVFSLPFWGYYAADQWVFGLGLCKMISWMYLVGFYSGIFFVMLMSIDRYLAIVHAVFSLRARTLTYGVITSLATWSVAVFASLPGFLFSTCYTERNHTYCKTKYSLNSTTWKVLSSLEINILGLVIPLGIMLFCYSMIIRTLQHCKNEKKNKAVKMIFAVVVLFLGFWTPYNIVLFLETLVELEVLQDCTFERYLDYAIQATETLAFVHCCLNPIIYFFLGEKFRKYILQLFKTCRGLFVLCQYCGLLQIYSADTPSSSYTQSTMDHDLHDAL
# [12] = biological target: T5, C-C chemokine receptor type 1 (Homo sapiens) (UniProt P32246); experiment: Antagonist activity at CCR1 (unknown origin) at 10 uM; assay type: functional
# T5 sequence (whole entry): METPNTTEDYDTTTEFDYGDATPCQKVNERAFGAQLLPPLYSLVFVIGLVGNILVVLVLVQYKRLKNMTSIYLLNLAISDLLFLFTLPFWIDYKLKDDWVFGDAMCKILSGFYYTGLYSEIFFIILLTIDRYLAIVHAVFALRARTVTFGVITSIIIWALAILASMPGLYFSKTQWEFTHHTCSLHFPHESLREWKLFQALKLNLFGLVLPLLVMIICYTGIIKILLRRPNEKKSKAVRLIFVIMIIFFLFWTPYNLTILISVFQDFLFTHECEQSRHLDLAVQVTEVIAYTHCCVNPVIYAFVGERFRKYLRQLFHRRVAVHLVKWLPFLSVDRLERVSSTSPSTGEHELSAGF
# [13] = biological target: C-C chemokine receptor type 5 (Homo sapiens) (UniProt P51681); experiment: Antagonist activity at CCR5 (unknown origin) at 10 uM; assay type: functional
# Chain of C-C chemokine receptor type 5 (Homo sapiens) (P51681 whole entry, looked up): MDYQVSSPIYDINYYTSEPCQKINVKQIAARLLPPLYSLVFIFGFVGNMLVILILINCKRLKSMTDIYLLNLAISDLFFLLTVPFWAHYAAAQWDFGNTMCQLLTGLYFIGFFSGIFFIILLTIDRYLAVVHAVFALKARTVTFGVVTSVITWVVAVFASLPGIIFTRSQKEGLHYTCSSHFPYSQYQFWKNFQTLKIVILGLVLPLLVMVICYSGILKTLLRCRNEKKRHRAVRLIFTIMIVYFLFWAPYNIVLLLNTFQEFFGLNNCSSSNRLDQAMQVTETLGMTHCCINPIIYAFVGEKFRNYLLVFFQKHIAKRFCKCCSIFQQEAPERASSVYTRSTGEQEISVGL
# [14] = Oral bioavailability in rat; assay type: ADME, organism-based; details: in vivo
# [15] = Oral bioavailability in mouse; assay type: ADME, organism-based; details: in vivo
# [16] = Volume of distribution at steady state in mouse; assay type: ADME, organism-based; details: in vivo, read-out: Vdss
# [17] = Lipophilicity, log D of the compound; assay type: physicochemical; details: octanol/water
# [18] = biological target: T6, C-C chemokine receptor type 7 (Homo sapiens) (UniProt P32248); experiment: Antagonist activity at CCR7 (unknown origin) at 10 uM; assay type: functional
# T6 sequence (whole entry): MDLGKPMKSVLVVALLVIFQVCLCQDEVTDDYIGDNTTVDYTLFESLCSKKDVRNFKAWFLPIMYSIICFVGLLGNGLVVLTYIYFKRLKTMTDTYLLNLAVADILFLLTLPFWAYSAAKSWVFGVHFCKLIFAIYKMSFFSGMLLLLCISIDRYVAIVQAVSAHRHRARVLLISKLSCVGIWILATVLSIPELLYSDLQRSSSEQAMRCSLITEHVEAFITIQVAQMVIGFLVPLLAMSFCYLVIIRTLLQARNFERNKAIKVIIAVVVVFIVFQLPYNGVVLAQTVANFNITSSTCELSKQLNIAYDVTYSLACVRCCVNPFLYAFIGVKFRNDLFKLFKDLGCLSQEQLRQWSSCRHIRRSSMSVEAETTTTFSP
# [19] = Solubility of the compound; assay type: physicochemical
# [20] = Oral bioavailability in dog at 9 umol/kg; assay type: ADME, organism-based, Canis lupus familiaris; details: in vivo
# [21] = biological target: T7, C-C chemokine receptor type 4 (Canis lupus familiaris, UniProt Q8MJW8); experiment: Antagonist activity at dog CCR4
# T7 sequence (Q8MJW8 whole entry): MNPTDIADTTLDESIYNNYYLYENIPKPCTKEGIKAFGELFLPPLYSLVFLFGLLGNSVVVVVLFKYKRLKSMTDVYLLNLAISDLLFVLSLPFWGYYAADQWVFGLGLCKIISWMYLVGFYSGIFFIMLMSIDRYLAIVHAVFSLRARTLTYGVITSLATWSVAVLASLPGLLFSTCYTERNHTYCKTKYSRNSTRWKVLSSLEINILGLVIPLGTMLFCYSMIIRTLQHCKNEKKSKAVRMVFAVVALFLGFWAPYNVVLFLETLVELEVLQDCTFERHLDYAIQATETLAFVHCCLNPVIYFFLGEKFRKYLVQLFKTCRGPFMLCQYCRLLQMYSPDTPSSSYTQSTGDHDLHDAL
# [22] = Half life in dog at 9 umol/kg, po or 3 umol/kg, iv; assay type: ADME, organism-based, Canis lupus familiaris; details: in vivo
# [23] = Oral bioavailability in rat at 9 umol/kg; assay type: ADME, organism-based; details: in vivo
# Hepatocyte = experiment: Stability in human hepatocytes assessed per million cells
# [24] = biological target: T4, C-C chemokine receptor type 4; experiment: Antagonist activity at human CCR4 expressed in HEK cells coexpressing CD4+ assessed as inhibition of CCL22 induced Ca2+ mobilization; assay type: functional, cell-based
# [25] = Volume of distribution at steady state in rat at 9 umol/kg, po or 3 umol/kg, iv; assay type: ADME, organism-based; details: in vivo, read-out: Vdss
# [26] = Volume of distribution at steady state in dog at 9 umol/kg, po or 3 umol/kg, iv; assay type: ADME, organism-based, Canis lupus familiaris; details: in vivo, read-out: Vdss
# [27] = biological target: T8, C-C chemokine receptor type 4 (Homo sapiens) (UniProt P51679); experiment: Agonist activity at CCR4 (unknown origin) up to 10 uM; assay type: functional
# T8 sequence (whole entry): T4 sequence (P51679 whole entry)
# [28] = Clearance in dog at 9 umol/kg, po or 3 umol/kg, iv; assay type: ADME, organism-based, Canis lupus familiaris; details: in vivo
# [29] = Clearance in rat at 9 umol/kg, po or 3 umol/kg, iv; assay type: ADME, organism-based; details: in vivo
# [30] = Lipophilicity, log P of the compound; assay type: physicochemical; details: octanol/water
# [31] = Half life in rat at 9 umol/kg, po or 3 umol/kg, iv; assay type: ADME, organism-based; details: in vivo
Compound,fraction unbound [2],Activity [3],Activity [4],Activity [5],Activity [6],pIC50 [7],IC50 [9] [nM],IC50 [11] [nM],Activity [12],Activity [13],logD [17],Activity [18],solubility [19] [µg/mL],further results
COc1nc(Br)cnc1NS(=O)(=O)c1ccc(Cl)s1,< 0.001,inactive,inactive,inactive,inactive,8.3,5.01,63.1,inactive,inactive,1.1,inactive,340,Vd [1]: 0.1 L/kg; fraction unbound [8]: 0.0015; fraction unbound [10]: 0.033; bioavailability [14]: 45%; bioavailability [15]: 86%; Vd [16]: 0.1 L/kg
COc1nc(F)cnc1NS(=O)(=O)c1cccc(Cl)c1Cl,0.006,inactive,inactive,inactive,inactive,9,1,2.51,inactive,inactive,0.6,inactive,1300,bioavailability [20]: 100%; IC50 [21]: 3.16 nM; half-life [22]: 0.5 h; bioavailability [23]: 100%; Stability (Hepatocyte): < 1 uL/ml; IC50 [24]: 3.98 nM; Vd [25]: 0.2 L/kg; Vd [26]: 0.2 L/kg; Activity [27]: inactive; clearance [28]: 3.7 mL/min/kg; clearance [29]: 2.3 mL/min/kg; logP [30]: 3.1; half-life [31]: 2.5 h
